Data reported in ChEMBL document CHEMBL3085631, “GluK1 antagonists from 6-(tetrazolyl)phenyl decahydroisoquinoline derivatives: in vitro profile and in vivo analgesic efficacy” (Bioorg Med Chem Lett, 2013).

Columns and labels:
Rattus norvegicus [1] = assay: Analgesic activity in rat assessed as reversal of carrageenan-induced thermal hyperalgesia at 10 mg/kg, sc after 30 to 40 mins relative to vehicle-treated control; type: functional; conditions: route subcutaneous
[2] = molecular target: Glutamate receptor ionotropic, kainate 1 (Homo sapiens, UniProt P39086); assay: Displacement of [3H]ATPA from human Gluk1 receptor
Glutamate receptor 2 = Glutamate receptor 2 (Homo sapiens, UniProt P42262); assay: Displacement of [3H]AMPA from homomeric recombinant GluA2 receptor (unknown origin)
Rattus norvegicus [3] = assay: Toxicity in Sprague-Dawley rat assessed as ataxia at 5 to 10 mg/kg, po by rotarod test; type: organism-based; parameters: dose 5-10 mg/kg, route oral; conditions: in vivo
Rattus norvegicus [4] = assay: Toxicity in Sprague-Dawley rat assessed as sedation at 5 to 10 mg/kg, po by rotarod test; type: organism-based; parameters: dose 5-10 mg/kg, route oral; conditions: in vivo
Rattus norvegicus [5] = assay: Analgesic activity in po dosed Sprague-Dawley rat assessed as reversal of formalin-induced late-phase paw-licking behavior after 1 hr; type: functional; conditions: read-out: MED
Rattus norvegicus [6] = assay: Analgesic activity in po dosed rat assessed as reversal of carrageenan-induced thermal hyperalgesia after 60 mins; type: functional; conditions: 1 h, read-out: MED
[7] = Plasma concentration in rat at 5 mg/kg, po after 1 hr; type: ADME, organism-based; parameters: dose 5 mg/kg, route oral
[8] = Oral bioavailability in rat at 5 mg/kg; type: ADME, organism-based; conditions: in vivo

Chain of Glutamate receptor ionotropic, kainate 1 (P39086 whole entry): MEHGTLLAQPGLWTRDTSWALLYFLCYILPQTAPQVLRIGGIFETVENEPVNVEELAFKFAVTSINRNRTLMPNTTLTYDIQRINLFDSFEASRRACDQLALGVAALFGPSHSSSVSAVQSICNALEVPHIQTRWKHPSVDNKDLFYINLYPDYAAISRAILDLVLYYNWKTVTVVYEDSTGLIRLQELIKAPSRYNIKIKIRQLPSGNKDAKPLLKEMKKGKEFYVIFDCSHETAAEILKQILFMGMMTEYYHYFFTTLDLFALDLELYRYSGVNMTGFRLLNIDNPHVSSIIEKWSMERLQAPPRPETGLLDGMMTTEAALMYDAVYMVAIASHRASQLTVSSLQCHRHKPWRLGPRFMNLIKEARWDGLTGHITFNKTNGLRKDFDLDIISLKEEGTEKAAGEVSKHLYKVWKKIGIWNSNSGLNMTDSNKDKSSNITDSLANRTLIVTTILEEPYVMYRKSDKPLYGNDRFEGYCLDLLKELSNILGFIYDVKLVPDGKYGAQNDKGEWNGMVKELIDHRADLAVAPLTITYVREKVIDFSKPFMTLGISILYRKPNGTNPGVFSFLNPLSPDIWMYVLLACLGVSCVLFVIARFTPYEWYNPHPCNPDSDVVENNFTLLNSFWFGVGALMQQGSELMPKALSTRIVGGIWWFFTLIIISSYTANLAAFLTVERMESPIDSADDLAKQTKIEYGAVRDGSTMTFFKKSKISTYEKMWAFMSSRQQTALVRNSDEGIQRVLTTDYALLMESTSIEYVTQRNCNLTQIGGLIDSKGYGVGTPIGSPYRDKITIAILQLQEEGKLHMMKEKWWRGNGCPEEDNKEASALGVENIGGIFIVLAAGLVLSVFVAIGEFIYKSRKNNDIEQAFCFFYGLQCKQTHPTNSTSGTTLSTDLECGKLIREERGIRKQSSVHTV
Chain of Glutamate receptor 2 (P42262 whole entry): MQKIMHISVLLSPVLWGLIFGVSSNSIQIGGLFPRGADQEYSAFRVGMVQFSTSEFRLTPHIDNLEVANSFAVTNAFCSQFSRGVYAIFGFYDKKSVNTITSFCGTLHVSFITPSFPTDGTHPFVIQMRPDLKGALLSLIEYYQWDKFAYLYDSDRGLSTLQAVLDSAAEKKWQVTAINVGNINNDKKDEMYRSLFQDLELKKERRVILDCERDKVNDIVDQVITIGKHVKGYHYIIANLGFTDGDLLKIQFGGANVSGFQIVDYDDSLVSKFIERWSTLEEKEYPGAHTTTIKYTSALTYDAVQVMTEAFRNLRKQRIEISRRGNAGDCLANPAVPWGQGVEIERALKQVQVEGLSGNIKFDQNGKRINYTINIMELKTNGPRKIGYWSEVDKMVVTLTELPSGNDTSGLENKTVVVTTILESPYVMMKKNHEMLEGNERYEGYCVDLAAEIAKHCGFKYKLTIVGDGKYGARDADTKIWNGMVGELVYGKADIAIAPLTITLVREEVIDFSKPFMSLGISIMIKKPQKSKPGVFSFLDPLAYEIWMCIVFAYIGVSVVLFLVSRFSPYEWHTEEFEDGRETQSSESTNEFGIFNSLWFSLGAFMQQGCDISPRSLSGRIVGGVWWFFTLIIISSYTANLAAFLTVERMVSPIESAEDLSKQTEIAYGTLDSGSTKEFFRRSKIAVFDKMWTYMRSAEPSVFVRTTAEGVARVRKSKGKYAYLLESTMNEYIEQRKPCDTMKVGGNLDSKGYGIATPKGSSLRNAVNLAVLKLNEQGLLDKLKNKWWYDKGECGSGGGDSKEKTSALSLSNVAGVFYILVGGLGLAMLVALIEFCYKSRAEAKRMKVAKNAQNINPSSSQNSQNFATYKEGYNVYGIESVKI

SMILES	Ki [2]	Ki (Glutamate receptor 2)	Activity (Rattus norvegicus [1])	other results
O=C(O)[C@@H]1C[C@H]2C[C@@H](Oc3ccccc3-c3nn[nH]n3)CC[C@H]2CN1	1200 nM	16000 nM	152.6%	–
O=C(O)[C@@H]1C[C@H]2C[C@@H](Nc3ccccc3-c3nn[nH]n3)CC[C@H]2CN1	800 nM	6000 nM	124.8%	–
Cl.O=C(O)c1ccc(C[C@H]2CC[C@H]3CN[C@H](C(=O)O)C[C@H]3C2)cc1	–	–	67.8%	–
Cl.O=C(O)[C@@H]1C[C@H]2C[C@@H](Oc3cc(OCc4ccccc4)ccc3-c3nnn[nH]3)CC[C@H]2CN1	160 nM	17000 nM	81.7%	–
Cl.O=C(O)[C@@H]1C[C@H]2C[C@@H](Oc3cc(Cc4ccccc4)ccc3-c3nnn[nH]3)CC[C@H]2CN1	160 nM	9600 nM	89.8%	–
Cl.O=C(O)[C@@H]1C[C@H]2C[C@@H](Cc3ccccc3-c3nnn[nH]3)CC[C@H]2CN1	3000 nM	13000 nM	73%	–
Cl.O=C(O)[C@@H]1C[C@H]2C[C@@H](Sc3ccccc3-c3nnn[nH]3)CC[C@H]2CN1	600 nM	22000 nM	52.6%	–
Cl.O=C(O)[C@@H]1C[C@H]2C[C@@H](Oc3cccc(Cl)c3-c3nnn[nH]3)CC[C@H]2CN1	200 nM	30000 nM	80.2%	Activity (Rattus norvegicus [3]): Toxic; Activity (Rattus norvegicus [4]): Toxic; minimal effective dose (Rattus norvegicus [5]): 1 mg/kg; minimal effective dose (Rattus norvegicus [6]): 3 mg/kg; concentration at 1 h [7]: 1020 ng/mL; bioavailability [8]: 42%
COc1cccc(O[C@H]2CC[C@H]3CN[C@H](C(=O)O)C[C@H]3C2)c1-c1nnn[nH]1	1100 nM	252000 nM	–	–
Cc1cccc(N[C@H]2CC[C@H]3CN[C@H](C(=O)O)C[C@H]3C2)c1-c1nnn[nH]1	3200 nM	128000 nM	–	–
COc1cccc(N[C@H]2CC[C@H]3CN[C@H](C(=O)O)C[C@H]3C2)c1-c1nnn[nH]1	12800 nM	181000 nM	–	–
O=C(O)[C@@H]1C[C@H]2C[C@@H](Nc3cccc(Cl)c3-c3nnn[nH]3)CC[C@H]2CN1	–	6400 nM	–	–
O=C(O)[C@@H]1C[C@H]2C[C@@H](Oc3ccc(F)cc3-c3nnn[nH]3)CC[C@H]2CN1	900 nM	2700 nM	–	–
O=C(O)[C@@H]1C[C@H]2C[C@@H](Oc3ccc(Cl)cc3-c3nnn[nH]3)CC[C@H]2CN1	400 nM	400 nM	–	–
O=C(O)[C@@H]1C[C@H]2C[C@@H](Nc3ccc(F)cc3-c3nnn[nH]3)CC[C@H]2CN1	–	12000 nM	–	–
Cl.O=C(O)[C@@H]1C[C@H]2C[C@@H](Oc3cc(-c4ccccc4)ccc3-c3nnn[nH]3)CC[C@H]2CN1	100 nM	2300 nM	100.8%	–
Cc1ccc(-c2nnn[nH]2)c(N[C@H]2CC[C@H]3CN[C@H](C(=O)O)C[C@H]3C2)c1	2900 nM	6200 nM	–	–
O=C(O)[C@@H]1C[C@H]2C[C@@H](Oc3c(F)cccc3-c3nnn[nH]3)CC[C@H]2CN1	422000 nM	450000 nM	–	–
CC(C)Oc1ccc(-c2nnn[nH]2)c(O[C@H]2CC[C@H]3CN[C@H](C(=O)O)C[C@H]3C2)c1.Cl	900 nM	12000 nM	76.9%	–
O=C(O)[C@@H]1C[C@H]2C[C@@H](CCc3nn[nH]n3)CC[C@H]2CN1 [TEZAMPANEL ANHYDROUS]	–	–	133%	–

Second part, led by results:

Ki [2]	Ki (Glutamate receptor 2)	SMILES	Activity (Rattus norvegicus [1])	other results
17000 nM	335000 nM	O=C(O)[C@@H]1C[C@H]2C[C@@H](Oc3cc(Oc4ccccc4)ccc3-c3nnn[nH]3)CC[C@H]2CN1	–	–
1700 nM	9600 nM	O=C(O)[C@@H]1C[C@H]2C[C@@H](Oc3cc(CCc4ccccc4)ccc3-c3nnn[nH]3)CC[C@H]2CN1	–	–
1100 nM	5200 nM	Cc1ccc(-c2nnn[nH]2)c(O[C@H]2CC[C@H]3CN[C@H](C(=O)O)C[C@H]3C2)c1	–	–
1400 nM	2000 nM	COc1ccc(-c2nnn[nH]2)c(O[C@H]2CC[C@H]3CN[C@H](C(=O)O)C[C@H]3C2)c1	–	–
1100 nM	3500 nM	O=C(O)[C@@H]1C[C@H]2C[C@@H](Nc3cc(-c4ccccc4)ccc3-c3nnn[nH]3)CC[C@H]2CN1	–	–
1000 nM	13000 nM	O=C(O)[C@@H]1C[C@H]2C[C@@H](Oc3cc(-c4ccccc4Cl)ccc3-c3nnn[nH]3)CC[C@H]2CN1	–	–
700 nM	1700 nM	O=C(O)[C@@H]1C[C@H]2C[C@@H](Oc3cc(-c4cccc(Cl)c4)ccc3-c3nnn[nH]3)CC[C@H]2CN1	–	–
20 nM	3 nM	O=C(O)[C@@H]1C[C@H]2C[C@@H](Oc3cc(-c4ccc(Cl)cc4)ccc3-c3nnn[nH]3)CC[C@H]2CN1	–	–
900 nM	2200 nM	O=C(O)[C@@H]1C[C@H]2C[C@@H](Oc3cc(-c4nccs4)ccc3-c3nnn[nH]3)CC[C@H]2CN1	–	–
90 nM	4400 nM	O=C(O)[C@@H]1C[C@H]2C[C@@H](Oc3cc(-c4cccs4)ccc3-c3nnn[nH]3)CC[C@H]2CN1	–	–
10000 nM	20000 nM	O=C(O)[C@@H]1C[C@H]2C[C@@H](Oc3cc(-c4cccnc4)ccc3-c3nnn[nH]3)CC[C@H]2CN1	–	–
